Source: ChEMBL document CHEMBL2429807, “Synthesis and cytotoxicity of novel 4-(4-(substituted)-1H-1,2,3-triazol-1-yl)-N-phenethylbenzenesulfonamides” (Med Chem Res, 2013)

How the values were obtained:
Assay type in all cases: functional, cell-based
MOLT-3 = assay: Cytotoxicity against human MOLT3 cells after 48 hrs by XTT assay; details: MOLT-3, 48 h
A549 = assay: Cytotoxicity against human A549 cells after 48 hrs by MTT assay; details: A549, 48 h
[1] = Cytotoxicity against human HuCCa1 cells after 48 hrs by MTT assay; details: HuCC-A1, 48 h
HepG2 = assay: Cytotoxicity against human HepG2 cells after 48 hrs by MTT assay; details: HepG2, 48 h

Structure (SMILES) | IC50 (MOLT-3) | IC50 (A549) | IC50 [1] | IC50 (HepG2)
O=c1cc(OCc2cn(-c3ccc(S(=O)(=O)NCCc4ccccc4)cc3)nn2)c2ccccc2o1 | 10.7 µM | > 50 µg/mL | > 50 µg/mL | > 50 µg/mL
COc1cc(C=O)ccc1OCc1cn(-c2ccc(S(=O)(=O)NCCc3ccccc3)cc2)nn1 | 9.22 µM | 79.2 µM | > 50 µg/mL | 57.5 µM
COc1ccc(CCNS(=O)(=O)c2ccc(-n3cc(COc4ccc([N+](=O)[O-])cc4)nn3)cc2)cc1OC | 10.1 µM | > 50 µg/mL | > 50 µg/mL | > 50 µg/mL
O=Cc1ccc(OCc2cn(-c3ccc(S(=O)(=O)NCCc4ccccc4)cc3)nn2)cc1 | 32 µM | > 50 µg/mL | 87.9 µM | 101 µM
Cc1ccc(OCc2cn(-c3ccc(S(=O)(=O)NCCc4ccccc4)cc3)nn2)cc1 | > 50 µg/mL | > 50 µg/mL | > 50 µg/mL | 81.8 µM
O=S(=O)(NCCc1ccccc1)c1ccc(-n2cc(-c3ccccc3)nn2)cc1 | > 50 µg/mL | 34.5 µM | 8.65 µM | 9.07 µM
COc1ccc(CCNS(=O)(=O)c2ccc(-n3cc(COc4ccc(C=O)cc4)nn3)cc2)cc1OC | 17.4 µM | 28 µM | > 50 µg/mL | > 50 µg/mL
Nc1ccc(S(=O)(=O)NCCc2ccccc2)cc1 | 167 µM | > 50 µg/mL | > 50 µg/mL | > 50 µg/mL
COc1cccc2c1C(=O)c1c(O)c3c(c(O)c1C2=O)C[C@@](O)(C(=O)CO)C[C@@H]3O[C@H]1C[C@H](N)[C@H](O)[C@H](C)O1 [DOXORUBICIN] | – | 0.44 µM | 0.83 µM | 0.79 µM
O=c1ccc2ccc(OCc3cn(-c4ccc(S(=O)(=O)NCCc5ccccc5)cc4)nn3)cc2o1 | 89 µM | 19.6 µM | 16.1 µM | 12.4 µM
COc1cc([C@@H]2c3cc4c(cc3[C@@H](O[C@@H]3O[C@@H]5CO[C@@H](C)O[C@H]5[C@H](O)[C@H]3O)[C@H]3COC(=O)[C@H]23)OCO4)cc(OC)c1O [ETOPOSIDE] | 0.051 µM | – | – | 30.2 µM
COC(=O)c1ccccc1OCc1cn(-c2ccc(S(=O)(=O)NCCc3ccccc3)cc2)nn1 | 8.81 µM | > 50 µg/mL | > 50 µg/mL | 49.4 µM
Cc1ccccc1OCc1cn(-c2ccc(S(=O)(=O)NCCc3ccccc3)cc2)nn1 | 34.2 µM | > 50 µg/mL | > 50 µg/mL | 41.6 µM
[N-]=[N+]=Nc1ccc(S(=O)(=O)NCCc2ccccc2)cc1 | 60.1 µM | 139 µM | > 50 µg/mL | 92.6 µM
COc1ccc(CCNS(=O)(=O)c2ccc(-n3cc(-c4ccccc4)nn3)cc2)cc1OC | 61 µM | 18.2 µM | > 50 µg/mL | 23.9 µM
O=S(=O)(NCCc1ccccc1)c1ccc(-n2cc(COc3ccc4ccccc4c3)nn2)cc1 | 74.2 µM | > 50 µg/mL | > 50 µg/mL | 28.2 µM
O=S(=O)(NCCc1ccccc1)c1ccc(-n2cc(COc3cccc4ccccc34)nn2)cc1 | > 50 µg/mL | > 50 µg/mL | > 50 µg/mL | > 50 µg/mL
O=S(=O)(NCCc1ccccc1)c1ccc(-n2cc(COc3ccccc3)nn2)cc1 | > 50 µg/mL | > 50 µg/mL | > 50 µg/mL | 57.5 µM
O=[N+]([O-])c1ccc(OCc2cn(-c3ccc(S(=O)(=O)NCCc4ccccc4)cc3)nn2)cc1 | 61.4 µM | > 50 µg/mL | > 50 µg/mL | > 50 µg/mL
COc1ccc(CCNS(=O)(=O)c2ccc(N=[N+]=[N-])cc2)cc1OC | 48.5 µM | > 50 µg/mL | > 50 µg/mL | 122 µM
COc1ccc(CCNS(=O)(=O)c2ccc(N)cc2)cc1OC | 104 µM | > 50 µg/mL | > 50 µg/mL | > 50 µg/mL
COc1ccc(C=O)cc1OCc1cn(-c2ccc(S(=O)(=O)NCCc3ccccc3)cc2)nn1 | 10.3 µM | 39 µM | > 50 µg/mL | 34.5 µM
